Reference: PMC7603008 (Materials, 2020)
Ends that are not written are not given here.

Columns and labels:
[1] = Dentinal tubule penetration by confocal laser scanning microscopy; parameters: species or system human; conditions: Rhodamin B-labeled Cpne7-DP 20 µg microbrushed for 1 min onto acid-etched dentin of extracted tooth, PBS wash
Procedure: Human third molars were collected at the Seoul National University Dental Hospital (Seoul, Korea), and the experimental protocol was approved by the Institutional Review Board (IRB No: S-D20140007). Teeth were decoronated to 2–3 mm using a safe diamond disc (Isomet, Buehler Ltd., Düsseldorf, Germany) to eliminate the coronal enamel layer and expose the dentin surface. Teeth were then treated with 5 mL of 32% phosphoric acid solution for 5 min to completely open the dentinal tubules. To remove the residual smear layer, specimens were ultrasonicated in deionized water twice for 5 min each and then rinsed with PBS three times.
Cpne7-DP was tagged with Rhodamin B dye using the Rhodamine Fast Conjugation kit (ab188286, Abcam, Cambridge, MA, USA) according to the manufacturer’s instructions. Rhodamin B-labeled Cpne7-DP (20 µg) was applied to the dentin surfaces of specimens with the help of disposable microbrushes for 1 min, and then specimens were washed with PBS three times. Subsequently, the specimens were longitudinally sectioned at a thickness of 0.5 mm using a safe diamond disc. The sections were mounted onto glass slides and scanned under a confocal laser scanning microscope (LSM 700; Carl Zeiss, Jena, Germany).

MDPC-23 cells = assay: Peptide translocation and localization by immunofluorescence; type: cell-based, mouse
Procedure: For peptide translocation and localization analysis, a Cy5 Fast Conjugation Kit (ab188288, Abcam, Cambridge, MA, USA) was used to tag Cpne7-DP according to the manufacturer’s instructions. MDPC-23 cells were treated with Cy5-labeled Cpne7-DP (10 µg/mL) and fixed 3 h later. Before fixing with 4% paraformaldehyde in PBS, cells in Laboratory-Tek chamber slides (Nunc, Rochester, NY, USA) were washed with PBS. Cells were then visualized using fluorescence microscopy (AX70, Olympus, Tokyo, Japan). DAPI (Sigma-Aldrich) was used to identify the chromosomal DNA in the nucleus (1:1000 dilution).

hDPCs = assay: MTT cytotoxicity / proliferation assay; type: cell-based, human; conditions: 0 to 5 days, absorbance 540 nm, three independent experiments in triplicate
Procedure: To evaluate the effects of Cpne7-DP on hDPCs proliferation, an MTT [3-(4,5-Dimethylthiazol-2-yl)-2,5-diphenyltetrazolium bromide, a tetrazole] assay (Sigma-Aldrich, Saint Louis, MO, USA) was performed. Cells were seeded on a 96-well plate at a density of 3 × 10^3 cells/well and treated with Cpne7-DP after 24 h. Cells were cultured for up to 5 days, and MTT analyses were performed on days 0, 1, 3, and 5. After washing with phosphate-buffered saline (PBS), 20 µL of MTT was added to each well and incubated for 4 h at 37 °C. After removing the MTT solution, the converted dye was dissolved in Me2SO and measured by reading the absorbance at a wavelength of 540 nm with a microplate reader (Multiskan EX; Thermo Electron Corp., Waltham, MA, USA). Three independent experiments with triplicate samples were analyzed.

Sequence: KYKQKRRSYK [Cpne7-DP]
- Ability to permeate dentinal tubules [1]: flow through the entire length of the dentinal tubules into the pulp
- Internalization with chlorpromazine (clathrin-mediated endocytosis inhibitor) (MDPC-23 cells; MDPC-23 cells pre-treated with CPZ 10 and 20 μM for 1 h, immunofluorescence): diffusely localized to the cytoplasm
- Internalization with ethylisopropyl amiloride (macropinocytosis inhibitor) (MDPC-23 cells; MDPC-23 cells pre-treated with EIPA for 1 h, immunofluorescence): no effect on the cytoplasmic localization
- Internalization with methyl-β-cyclodextrin (caveolin-mediated endocytosis inhibitor) (MDPC-23 cells; MDPC-23 cells pre-treated with MβCD for 1 h, immunofluorescence): diffusely localized to the cytoplasm
- Internalization in nucleolin siRNA-transfected cells (MDPC-23 cells; MDPC-23 cells pre-treated with nucleolin siRNA for 1 h, immunofluorescence): diffusely located in the cytoplasm
- Intracellular distribution (MDPC-23 cells; MDPC-23 cells, Cy5-labeled Cpne7-DP 10 µg/mL, fixed 3 h later, fluorescence microscopy): localized to the cytoplasm
- Cytotoxicity versus control (MTT) (hDPCs): no significant difference in cytotoxicity
